From paper PMC2635027 (The Journal of Biological Chemistry, 2009)

Key:
[1] = test system: BHK21-tTA/anti-CHC cell line; type: cell-based, hamster; conditions: +tet control cells; peptides 10 μM, Tf 10 μg/ml; 37 °C; confocal microscopy
[2] = test system: BHK21-tTA/anti-CHC cell line; conditions: absence of tetracycline for 2 days; cited from earlier work
BHK21 cells = type: cell-based, hamster; conditions: BHK21 cells at 4 °C; 10 μM; confocal microscopy

Substance | vesicular (endocytic) uptake, in words [1] | inhibition of transferrin internalization [2] | intracellular fluorescently labeled vesicles, in words (BHK21 cells)
transferrin: transferrin conjugated to Alexa Fluor 633, marker for clathrin-dependent endocytosis | internalized at high rates | 90% | –
YARAARQARA [PTD4, TAMRA-PTD4 (YARAARQARA)] | presence of PTD4-containing vesicles | – | not observed
